Test results published in patent US6638945B1, “Quinoline derivatives as inhibitors of MEK enzymes” (AstraZeneca AB, priority 1999, dated 2003).

Target: human p45MEK1 (GST-MEK) (Homo sapiens, UniProt Q02750)
Test: Assay for inhibitors of the MAP kinase pathway (coupled GST-MEK/GST-MAPK/MBP 33P assay)
Type: biochemical
Conditions: GST-MEK activated by c-raf, 33P incorporation into myelin basic protein
Method: Assay for inhibitors of the MAP kinase pathway
To evaluate inhibitors of the MAPK pathway a coupled assay was carried out which measures phosphorylation of serine/threonine residues present in the substrate in the presence or absence of inhibitor. Recombinant glutathione S-transferase fusion protein containing human p45MEK1 (GST-MEK) was activated by c-raf (Sf9 insect cell lysate from triple baculoviral infection with c-raf/ras/lck) and used for the assay. Active GST-MEK was first used to activate a recombinant glutathione S-transferase fusion protein containing p44MAP kinase (GST-MAPK) in the presence of ATP and Mg^2+ for 60 min at room temperature in the presence or absence of potential inhibitors. The activated GST-MAPK was then incubated with myelin basic protein (MBP) as substrate for 10 min at room temperature in the presence of ATP, Mg^2+ and ^33P-ATP. The reaction was stropped by addition of 20% v/v phosphoric acid. Incorporation of ^33P into the myelin basic protein was determined by capture of the substrate on a filter mat, washing and counting using scintillation methods. The extent of inhibition was determined by comparison with untreated controls.
The final assay solution contained 10 mM Tris, pH 7.5, 0.05 mM EGTA, 8.33 μM [γ^33P]ATP, 8.33 mM Mg(OAc)2, 0.5 mM sodium orthovanadate, 0.05% w/v BSA, 6.5 ng GST-MEK, 1 μg GST-MAPK and 16.5 μg MBP in a reaction volume of 60 μl.

Sequence of human p45MEK1 (GST-MEK) (Q02750 whole entry): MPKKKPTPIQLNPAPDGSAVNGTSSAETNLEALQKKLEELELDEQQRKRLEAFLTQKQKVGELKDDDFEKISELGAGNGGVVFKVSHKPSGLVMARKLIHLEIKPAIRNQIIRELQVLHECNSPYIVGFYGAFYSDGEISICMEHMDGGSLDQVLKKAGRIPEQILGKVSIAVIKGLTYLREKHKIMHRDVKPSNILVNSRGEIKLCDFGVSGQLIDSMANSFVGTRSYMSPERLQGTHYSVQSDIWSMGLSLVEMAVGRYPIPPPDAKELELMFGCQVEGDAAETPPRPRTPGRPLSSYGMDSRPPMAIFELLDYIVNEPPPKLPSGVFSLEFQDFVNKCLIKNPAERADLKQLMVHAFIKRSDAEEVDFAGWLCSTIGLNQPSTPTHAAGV

IC50: 550 nM
SMILES: COc1cc2ncc(F)c(Nc3ccc(Oc4ccccc4)cc3)c2cc1OC [Compound No 5]
